Source: US11691960B2, “2-[thiophen-2-yl)formamido]-N-(phenyl)-2-methylpropanamide derivatives and the use thereof as medicament” (Boehringer Ingelheim International GmbH, priority 2020, dated 2023)
Like-named read-outs stand apart in the source and are kept apart here.

How the values were obtained:
human Factor Xa = human Factor Xa (Homo sapiens (Human), UniProt P00742); experiment: Assay C: human Factor Xa chromogenic substrate assay; assay type: biochemical; conditions: for IC50: human Factor Xa 0.86 nM, chromogenic substrate S2765; for Selectivity Assay C/Assay A: ratio IC50 Factor Xa / IC50 IDO1
Method: Assay C. In Vitro Testing of Human Factor Xa Potency:
Measurement of active human Factor Xa using a specific chromogenic substrate which is labeled with a p-nitro-anilino group (pNA). The cleavage in between the binding of the peptide substrate and the pNA-group is followed by a color change, which can be detected at 405 nm. The amount of cleaved substrate is directly proportional to the amount of active Xa.
[…] (100 U) human Factor Xa (Enzyme Research Laboratories; HFXa1011) were solved in 0.444 ml H2O (Millipore), which accords to a stock solution of 19.28 μM or 225 U/ml. Further dilutions were made in the assay buffer (Tris 100 mM, NaCL 150 mM, adjusted to a pH of 7.8 with HCL, containing 0.1% BSA and 0.05% Tween20). 25 mg (1 vial) of the chromogenic substrate S2765 (Chromogenix; S2765) was solved in 3.5 ml H2O (Millipore) to achieve a stock solution of 10 mM.
Compounds were solved and diluted in DMSO where the final dilution in the assay is 1:10 resulting in a final concentration of 1% DMSO.
• the prefinal dilution step was 1:10 in the assay buffer containing 11% DMSO resulting in 10% DMSO • final dilution in the assay is 1:10 resulting in a final concentration of 1% DMSO
Compounds were tested at final concentrations of 10 μM to 0.003 nM or lower. 5 μl human factor Xa (final concentration 0.86 nM), 2 μl compound dilution or assay buffer (containing 10% DMSO) and 8 μl assay buffer were pipetted in triplicates into a 384-well plate and incubated in the Thermomix at 24° C. for 10 minutes.
After addition of 5 μl chromogenic substrate (final concentration 0.5 mM) the enzyme-substrate reaction started and the kinetic measurement with the SpectraMax Monochromator was started within 1-2 minutes. • Parameter of measurement: (Spectra ax, Monochromator) • Absorbance; 1.LM 405 nM • Kinetic: 16 min each 2nd minute (9 times) • Negative Control (NC) 5 μl human factor Xa+10 μl assay buffer+5 μl Substrate • Positive Control (PC): 5 μl human factor Xa+2 μl Nafamostat (commercially available, final concentration: 1 μM)+8 μl assay buffer+5 μl Substrate • Blank (optional): 15 μl assay buffer+5 μl Substrate
Calculation of IC50, KI and the % effect at the highest concentration (Ratio)
For the calculation the average of the Vmax-values in between 120 sec to 720 sec were taken.
A x/y-Plot was created: x=log (M, Compound); y=vmax (drfu/min)
The data were analyzed with the curve fitting model: log (inhibitor) vs. response—Variable slope (four parameters)
The results of this fit were Top, Bottom, Log (IC50, M), Hillslope and IC50 (M)

MDR1 (P-gp) = MDR1 (P-gp) (Homo sapiens (Human), UniProt P08183); experiment: Assay E: MDCK assay MDR-1 (P-gp); assay type: in vitro ADME; conditions: for efflux ratio at 2 h, 10 μM: human, final test concentration 10 μM
Method: The MDCK assays provide information on the potential of a compound to pass the blood brain barrier. Permeability measurements across polarized, confluent MDCK-MDR1 cell monolayers grown on permeable filter supports are used as an in vitro absorption model: apparent permeability coefficients (PE) of the compounds across the MDCK-MDR1 cell monolayers are measured (pH 7.4, 37° C.) in apical-to-basal (AB) and basal-to-apical (BA) transport direction. The AB permeability (PEAB) represents drug absorption from the blood into the brain and the BA permeability (PEBA) drug efflux from the brain back into the blood via both, passive permeability as well as active transport mechanisms mediated by efflux and uptake transporters that are expressed on the MDCK-MDR1 cells, predominantly by the overexpressed human MDR1. Identical or similar permeabilities in both transport directions indicate passive permeation, vectorial permeability points to additional active transport mechanisms. Higher PEBA than PEAB (PEBA/PEAB >3) indicates the involvement of active efflux mediated by MDR1, which might compromise the goal to achieve sufficient brain exposure.
Assay E. MDCK assay MDR-1 (P-gp)
Apparent permeability coefficients (Papp) of the compounds across MDCK-MDR1 monolayers (MDCKII cells transfected with human MDR1 gene) are measured in apical-to-basal (AB) and basal-to-apical (BA) direction.
MDCK-MDR1 cells (6×10^5 cells/cm^2) are seeded onto filter inserts (Corning, Transwell, polycarbonate, 0.4 μm pore size) and cultured for 9 to 10 days. Compounds dissolved in DMSO stock solution (1-20 mM) are diluted with HTP-4 buffer (128.13 mM NaCl, 5.36 mM KCl, 1 mM MgSO4, 1.8 mM CaCl2, 4.17 mM NaHCO3, 1.19 mM Na2HPO4, 0.41 mM NaH2PO4, 15 mM HEPES, 20 mM glucose, pH 7.4) supplemented with 0.25% BSA to prepare the transport solutions, resulting in a final test concentration of 1 μM or 10 μM and a final DMSO content of 0.5%. The transport solution is applied to the apical or basolateral donor side for measuring A-B or B-A permeability, respectively. The receiver side contains HTP-4 buffer supplemented with 0.25% BSA. Samples are collected at the start and end of experiment from the donor and at various time intervals for up to 2 hours from the receiver side for concentration measurement by HPLC-MS/MS. Sampled receiver volumes are replaced with fresh receiver solution.
All data reported for Assay E were measured with a final test concentration of 10 μM.

[1] = Assay F: tissue distribution in rat after oral application; assay type: in vivo; conditions: for in vivo efflux (in words): after oral application; for in vivo efflux (Assay F): oral 10 μmol/kg, muscle/brain tissue distribution
Source text: In order to estimate the amount of administered drug to enter the brain, the brain to plasma ratio is used as surrogate parameter. As efflux transporters (e.g. P-gp) are located at the blood-brain barrier, compounds acting as substrates will be actively transported out of the brain. As these efflux transporters are not expressed in muscle tissue, the relative distribution ratio of compound between muscle and brain tissue can be used as indication for an efflux in vivo in rats or mice. In case there is no in vivo efflux detectable (in rats/mice) and in case there is no efflux in vitro (MDCK-MDR1 (P-gp)), a brain exposure in patients can be expected [see Table 7 for comparison of in vitro efflux data (MDCK-MDR1 assay) and in vivo efflux data (tissue distribution in rat/mouse after oral application)].
Assay F. Determination of Tissue Distribution in Rat/Mouse After Oral Application of Compounds
Male Han Wistar rats or C57BL/6NRj mice were orally dosed with 10 μmol/kg of compound to be investigated, suspended in 0.5% Natrosol/0.015% Tween80. Blood was collected in K3EDTA containing vials from the sublingual vein in short time Isoflurane anesthesia in rat or from the saphenous vein in conscious mice at […], 0.25, 0.5, 1, 2, 3, 4, 8 and 24 hours post administration. Subsequently, plasma was prepared by centrifugation for 5 min at 5000 rpm and stored at −20° C.
Tissues and CSF were sampled in anaesthetized animals. CSF was collected from the cisterna magna. Following exsanguination a femoral muscle sample was collected. Cranium and the dura matter were removed and the complete brain was collected. Before transfer of the muscle and brain sample to pre-weight homogenization devices (Precellys®) the tissues were rinsed with saline and blotted dry.
For homogenization, four parts (v/w) homogenization buffer (37.5% acetonitrile, 37.5% methanol, 25% water) were added. Tissues were homogenized with a Precellys® Evolution homogenizer. Five μL of the homogenate were added to 70 μL of a 1 to 1 (v/v) mixture of acetonitrile and methanol and frozen for at least 10 min at −18° C.
For final sample preparation, the sample was centrifuged at 4000 rpm for 1 min, and an aliquot of the resulting supernatant (30 μL) was mixed with 170 μL formic acid prior to injection to LC-MS. Calibration curves were prepared accordingly in rat and mouse plasma, respectively. All animal care and experimental procedures at Boehringer Ingelheim were conducted in compliance with the German and European Animal Welfare Act (EU Directive 2010/63/EU) and were approved by the Regierungspräsidium Tübingen as the responsible local German authority (reference number 35/9185.81-8/14-009-G).

human androgen receptor = human androgen receptor (Homo sapiens (Human), UniProt P10275); experiment: Assay B: human androgen receptor luciferase reporter assay (Indigo Biosciences); assay type: cell-based
Source text: Assay B. In Vitro Testing of Androgen Receptor Potency:
The human androgen receptor (AR) assay was run using Product #IB03001 from Indigo Biosciences. The cell line provided in this kit carries a reporter gene, induced upon AR stimulation. This reporter gene is cDNA encoding for beetle luciferase, a 62 kD protein originating from the North American firefly (Photinus pyralis). This luciferase catalyzes the mono-oxidation of D-luciferin yielding oxyluciferin, adenosine monophosphate, pyrophosphate, CO2, and photon emission. The luminescence intensity of the reaction is quantified using a luminometer.
To run the assay, the cells are thawed by adding pre-warmed cell recovery medium to each tube, then placed in a 37° C. water bath. 30000 viable cells in 200 μl are plated (collagen coated plates) and incubated at 37° C., ≥85% humidity, 5% CO2 for 24 hours. Media is replaced with compound screening medium. Cells are then challenged with 125 pM (EC80) 6a-Fl Testosterone and compounds are applied in half logarithmic dilutions from 10 μM to 10 nM. Assay plates are then incubated at 37° C., ≥85% humidity, 5% CO2 for 22-24 hours. Media is replaced with luciferase detection reagent and allowed 5 minutes to equilibrate prior to luminescence quantification.
Data Analysis consisted of calculating percentage of control between 100% (Negative control:6a-Fl Testosterone) and 0 (positive control: no 6a-FL Testosterone). Fitting of normalized values was made 4-Parameter sigmoidal binding curve (Log[conc]) vs. signal.

[2] = MDCK-MDR1, pH 7.4, Table 7, read-out: MDCK-MDR1 efflux ratio (Assay E)
[3] = pH 7.4, MDCK-MDR1 monolayers, mean +− standard deviation, read-out: Efflux ratio Assay E

Chain of MDR1 (P-gp) (P08183 whole entry): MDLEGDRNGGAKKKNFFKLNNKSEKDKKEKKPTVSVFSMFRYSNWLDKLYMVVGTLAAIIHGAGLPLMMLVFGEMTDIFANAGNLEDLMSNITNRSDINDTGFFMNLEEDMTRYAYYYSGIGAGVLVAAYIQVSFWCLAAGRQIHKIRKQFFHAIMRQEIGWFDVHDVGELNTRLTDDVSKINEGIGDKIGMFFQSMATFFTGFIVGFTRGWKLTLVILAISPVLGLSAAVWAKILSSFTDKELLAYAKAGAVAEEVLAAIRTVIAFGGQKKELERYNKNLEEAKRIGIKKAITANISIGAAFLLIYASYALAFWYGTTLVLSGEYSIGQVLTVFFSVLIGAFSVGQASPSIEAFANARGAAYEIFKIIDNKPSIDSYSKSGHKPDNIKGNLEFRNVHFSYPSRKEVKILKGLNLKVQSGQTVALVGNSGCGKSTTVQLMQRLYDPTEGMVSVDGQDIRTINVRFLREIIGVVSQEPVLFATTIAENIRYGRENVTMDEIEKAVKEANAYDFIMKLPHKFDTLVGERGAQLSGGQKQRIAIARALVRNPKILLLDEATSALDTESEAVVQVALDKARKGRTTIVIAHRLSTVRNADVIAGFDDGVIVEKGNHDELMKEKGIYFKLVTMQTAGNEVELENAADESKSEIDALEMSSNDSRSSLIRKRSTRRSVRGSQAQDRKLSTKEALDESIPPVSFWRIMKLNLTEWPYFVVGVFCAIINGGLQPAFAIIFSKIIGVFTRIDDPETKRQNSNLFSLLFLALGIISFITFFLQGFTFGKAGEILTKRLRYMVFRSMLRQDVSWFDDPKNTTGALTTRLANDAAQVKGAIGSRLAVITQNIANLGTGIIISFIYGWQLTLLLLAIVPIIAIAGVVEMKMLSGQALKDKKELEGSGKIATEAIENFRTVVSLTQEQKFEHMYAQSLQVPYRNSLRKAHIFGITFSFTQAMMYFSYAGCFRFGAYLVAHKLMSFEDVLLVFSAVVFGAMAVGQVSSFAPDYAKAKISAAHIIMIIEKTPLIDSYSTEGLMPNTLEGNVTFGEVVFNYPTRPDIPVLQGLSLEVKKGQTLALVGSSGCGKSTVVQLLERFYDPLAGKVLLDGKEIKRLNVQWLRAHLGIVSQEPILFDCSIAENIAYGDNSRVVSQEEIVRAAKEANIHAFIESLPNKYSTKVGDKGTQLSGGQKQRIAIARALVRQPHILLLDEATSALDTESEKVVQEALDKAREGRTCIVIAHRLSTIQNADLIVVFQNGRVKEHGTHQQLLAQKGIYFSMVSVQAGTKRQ
Chain of human Factor Xa (P00742 235-488): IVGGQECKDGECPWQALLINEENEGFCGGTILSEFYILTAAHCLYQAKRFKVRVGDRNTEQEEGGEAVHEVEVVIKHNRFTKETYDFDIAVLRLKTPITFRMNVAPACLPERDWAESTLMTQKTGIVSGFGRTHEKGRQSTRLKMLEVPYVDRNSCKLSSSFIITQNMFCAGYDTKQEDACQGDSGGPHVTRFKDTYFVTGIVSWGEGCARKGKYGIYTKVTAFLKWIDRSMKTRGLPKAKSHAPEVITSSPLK
Chain of human Factor Xa (P00742 41-179 partner): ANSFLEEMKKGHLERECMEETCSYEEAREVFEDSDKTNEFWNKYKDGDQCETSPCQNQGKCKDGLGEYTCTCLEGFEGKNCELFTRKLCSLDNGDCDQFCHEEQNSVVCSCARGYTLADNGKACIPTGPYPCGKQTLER
Chain of human androgen receptor (P10275 whole entry): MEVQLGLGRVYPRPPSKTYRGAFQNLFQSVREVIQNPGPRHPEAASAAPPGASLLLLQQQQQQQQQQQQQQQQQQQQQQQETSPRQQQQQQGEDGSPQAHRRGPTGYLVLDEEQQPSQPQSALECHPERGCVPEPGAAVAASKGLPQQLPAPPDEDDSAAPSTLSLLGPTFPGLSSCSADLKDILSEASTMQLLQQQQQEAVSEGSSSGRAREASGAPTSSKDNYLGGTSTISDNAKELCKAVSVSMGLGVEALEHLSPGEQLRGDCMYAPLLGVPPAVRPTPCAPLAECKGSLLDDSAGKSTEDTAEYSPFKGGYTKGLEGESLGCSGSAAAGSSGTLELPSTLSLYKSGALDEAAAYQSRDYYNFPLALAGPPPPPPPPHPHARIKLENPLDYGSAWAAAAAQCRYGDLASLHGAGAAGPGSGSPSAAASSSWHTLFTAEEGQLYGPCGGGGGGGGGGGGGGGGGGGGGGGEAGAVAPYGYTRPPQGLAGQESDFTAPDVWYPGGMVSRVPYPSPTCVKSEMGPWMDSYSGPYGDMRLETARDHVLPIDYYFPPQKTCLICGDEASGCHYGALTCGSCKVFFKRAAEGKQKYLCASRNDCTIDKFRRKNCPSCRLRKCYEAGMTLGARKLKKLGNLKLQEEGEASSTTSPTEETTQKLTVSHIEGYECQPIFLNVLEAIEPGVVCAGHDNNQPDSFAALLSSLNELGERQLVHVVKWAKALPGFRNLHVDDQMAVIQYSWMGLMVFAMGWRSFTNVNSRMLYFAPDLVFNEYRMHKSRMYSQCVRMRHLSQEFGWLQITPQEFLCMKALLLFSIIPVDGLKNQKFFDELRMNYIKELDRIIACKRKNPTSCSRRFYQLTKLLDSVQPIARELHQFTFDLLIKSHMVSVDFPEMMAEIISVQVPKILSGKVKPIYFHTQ

| inhibition of the human Factor Xa enzyme (in words) (human Factor Xa) | IC50 (human Factor Xa) [µM] | Selectivity Assay C/Assay A (human Factor Xa) | in vitro efflux, MDCK-MDR1 (in words) (MDR1 (P-gp)) | efflux ratio at 2 h, 10 μM (MDR1 (P-gp); [2]) | in vivo efflux (in words) [1] | in vivo efflux (Assay F) [1] | efflux ratio at 2 h, 10 μM (MDR1 (P-gp); [3]) | IC50 (human androgen receptor; challenge with 125 pM (EC80) 6a-Fl Testosterone, mean +− standard deviation) [µM] | Selectivity Assay B/Assay A (human androgen receptor; ratio IC50 androgen receptor / IC50 IDO1) | Structure (SMILES) |
| --- | --- | --- | --- | --- | --- | --- | --- | --- | --- | --- |
| inhibit the human Factor Xa enzyme | 0.04 | 0.01 | high efflux |  |  |  |  |  |  | Cc1cc(NC(=O)C(C)(C)NC(=O)c2ccc(Cl)s2)ccc1N1CCOCC1=O [WO2005/111029 Ex. 8] |
|  | > 10 | >164 |  | 7.6 | substantial in vivo efflux | 12.6 (rat) |  |  |  | CC(=O)N1CCc2ccc(NC(=O)C(C)(C)NC(=O)c3ccc(Cl)s3)cc2CC1 [WO2007/003536 Ex. 6] |
|  | > 10 | >13 |  | 1.8 | substantial in vivo efflux | 6.2 (rat) |  |  |  | CC(C)(NC(=O)c1ccc(Cl)s1)C(=O)Nc1ncc2c(n1)CCN(Cc1ccccc1)CC2 [WO2007/003536 Ex. 159] |
| inhibits the human Factor Xa enzyme | 0.008 | 0.03 | high efflux |  |  |  | 5.7 |  |  | Cc1cc(NC(=O)C(C)(C)NC(=O)c2ccc(Cl)s2)ccc1C(=O)N1CCCC1 [WO2005/111014 Ex. 4] |
| inhibits the human Factor Xa enzyme | 0.048 | 0.08 | high efflux ratio |  |  |  | 32 |  |  | C#Cc1ccc(C(=O)NC(C)(C(=O)Nc2ccc(N3CCOCC3=O)c(C)c2)C(F)(F)F)s1 (stereo not shown) [5-ethynyl-N-{1-trifluoromethyl-1-[3-methyl-4-(3-oxomorpholin-4-yl)phenylcarbamoyl]ethyl}thiophene-2-carboxamide] |
|  | > 10 | >175 |  | 1 | substantial in vivo efflux | 3.3 (rat) |  |  |  | CC(C)(NC(=O)c1ccc(Cl)s1)C(=O)Nc1ccc2c(c1)CCN(C(=O)C(F)(F)F)CC2 [WO2007/003536 Ex. 4] |
| inhibit the human Factor Xa enzyme | 0.026 | 0.11 | high efflux |  |  |  |  |  |  | CC(C)(NC(=O)c1ccc(Br)s1)C(=O)Nc1ccc(N2CCOCC2=O)c(Cl)c1 [WO2005/111029 Ex. 28] |
|  | > 10 | >57 |  |  |  |  |  | > 10 | >58 | CC(C)(NC(=O)c1ccc(Cl)s1)C(=O)Nc1ccc(Cl)cc1 [Example 5, 2-[(5-chlorothiophen-2-yl)formamido]-N-(4-chlorophenyl)-2-methylpropanamide] |
